Data reported in US20240285571A1, “METHODS OF TREATING BONE INFECTIONS” (MICROBION CORPORATION, priority 2020, published 2024).
≈ marks a conversion by molar mass, not a printed value. Read-outs that look alike come from different tables or passages of the source.

Tests used:
B. fragilis = assay: Agar dilution MIC, anaerobes (Example 5); format: cell-based; conditions: Bacteroides fragilis, ATCC25285; B. fragilis MMX 123 (ATCC 25285); QC; read-out: MIC
E. faecium = assay: Broth microdilution MIC (Example 5); format: cell-based
Description: (§1) Test and Comparator Agents: The test agents were stored at room temperature until assayed. […] The stock solutions were allowed to stand for at least 1 hr prior to use to auto-sterilize.
(§2) TestMedia: Test media were prepared and stored in accordance with guidelines from CLSI (4, 6, 7).
(§3) Broth Microdilution MC Testing (Aerobic Bacteria and Yeast): The broth microdilution assay method employed for the susceptibility testing of aerobic bacteria (excluding N. gonorrhoeae which was evaluated by agar dilution) and yeast essentially followed the procedures described by CLSI (3, 4, 7, 8) and employed automated liquid handlers to conduct serial dilutions and liquid transfers. […] These would become the ‘mother plates’ from which ‘daughter’ or test plates would be prepared. The drugs (300 μL at 40× the desired top concentration in the test plates) were dispensed into the appropriate well in Column 1 of the mother plates. The Biomek 2000 was used to make serial two-fold dilutions through Column 11 in the “mother plate”. The wells of Column 12 contained no drug and ultimately served as the organism growth control wells.
(§4) The daughter plates were prepared using the Biomek FX which transferred 5 μL of drug solution from each well of a mother plate to the corresponding well of the correct daughter plate in a single step.
(§5) A standardized inoculum of each organism was prepared per CLSI methods (3, 7). Isolated colonies of each test isolate were picked from the primary plate and a suspension was prepared to equal a 0.5 McFarland turbidity standard. Standardized suspensions were then diluted […] (1:100 for yeast, 1:20 for bacteria). After dilution, the inoculum suspensions were then transferred to compartments of sterile reservoirs divided by length (Beckman Coulter), and the Biomek 2000 was used to inoculate all plates. Daughter plates were placed on the Biomek 2000 in reverse orientation so that plates were inoculated from low to high drug concentration.
(§6) The Biomek 2000 delivered 10 μL of standardized inoculum into each well of the appropriate daughter plate for an additional 1:20 dilution.
(§7) Plates were stacked 4 high, covered with a lid on the top plate, placed into plastic bags, and incubated at 35° C. for approximately 24-48 hr for all yeast isolates and 16-24 hr for aerobic bacteria. Plates were viewed from the bottom using a plate viewer. […] MIC endpoints for the test agents and control compounds were read per CLSI criteria (3, 7).

C. difficile = assay: Agar dilution MIC, anaerobes (Example 5); format: cell-based, Clostridium difficile; conditions: Clostridioides difficile, read-out: MIC
C. parapsilosis = C. parapsilosis MMX 2323 (ATCC 22019), cited from earlier work
S. pneumoniae [1] = assay: Broth microdilution MIC (Example 5); format: cell-based
Description: as §1, §2, §3, §4, §5, §6, §7

S. pyogenes = assay: Broth microdilution MIC (Example 5); format: cell-based
Description: as §1, §2, §3, §4, §5, §6, §7

S. agalactiae = assay: Broth microdilution MIC (Example 5); format: cell-based
Description: as §1, §2, §3, §4, §5, §6, §7

S. pneumoniae [2] = conditions: S. pneumoniae MMX 6837 (ATCC 49619); cited from earlier work
[3] = system: vancomycin-intermediate Staphylococcus aureus; assay: Broth microdilution MIC (Example 6); format: cell-based; conditions: Staphylococcus aureus, NRS 13 / VISA, read-out: MIC values
Description: Test Compounds: The test agents BisEDT (MB-1-B3; Lot No. ED268-1-11-01), MB-2B, and MB-6 were stored at room temperature, in the dark, until assayed. The solvent and diluent for the test agents was DMSO (Sigma; St. Louis, MO; Lot No. SHBB9319V) and the prepared stock concentration was 6,464 μg/mL (101× the final test concentration).
Test compounds were evaluated at a concentration range of 0.06-64 μg/mL. For Gram-negative test isolates, amikacin and ceftazidime (alone and with clavulanate at a fixed concentration of 4 μg/mL) were evaluated over a concentration range of 0.06-64 μg/mL; meropenem and levofloxacin were evaluated over a concentration range of 0.008-8 μg/mL. For the testing of S. aureus, clindamycin, daptomycin, levofloxacin and vancomycin were evaluated at a concentration range of 0.008-8 μg/mL; linezolid was tested from 0.03-32 μg/mL.
Media: Cation-adjusted Mueller Hinton broth (CAMHB; BD; Lot No. 8190586) was used as the medium for testing (2, 3). For testing daptomycin, calcium was supplemented with […] Ca^2+, resulting in a final concentration of […] Ca^2+ (2, 3).
MIC Assay Procedure: MIC values were determined using a broth microdilution procedure described by CLSI (2, 3). Automated liquid handlers (Multidrop 384, Labsystems, Helsinki, Finland; Biomek 2000 and Biomek F X, Beckman Coulter, Fullerton CA) were used to conduct serial dilutions and liquid transfers.
To prepare the drug mother plates, which would provide the serial drug dilutions for the replicate daughter plates, the wells of columns 2 through 12 of standard 96-well microdilution plates (Costar 3795) were filled with 150 μl of the appropriate diluent for each row of drug. The test articles and comparator compounds (300 μl at 101× the highest concentration to be tested) were dispensed into the appropriate wells in column 1. The Biomek 2000 was then used to make 2-fold serial dilutions in the mother plates from column 1 through column 11. The wells of column 12 contained no drug and served as the organism growth control wells for the assay.
The daughter plates were loaded with 190 μL per well of RPMI using the Multidrop 384. The test panels were prepared on the Biomek FX instrument which transferred 2 μL of drug solution from each well of a mother plate to the corresponding well of each daughter plate in a single step.
A standardized inoculum of each test organism was prepared per CLSI methods to equal a 0.5 McFarland standard, followed by a dilution of 1:20. The plates were then inoculated with 10 μL of the diluted inoculum using the Biomek 2000 from low to high drug concentration resulting in a final concentration of approximately 5×10^5 CFU/mL.
Plates were stacked 3-4 high, covered with a lid on the top plate, placed into plastic bags, and incubated at 35° C. for 16 to 20 hr (vancomycin was read for S. aureus after 24 hr incubation time). The MIC was recorded as the lowest concentration of drug that inhibited visible growth of the organism.

E. faecalis = assay: Broth microdilution MIC (Example 5); format: cell-based, Enterococcus faecalis; conditions: VRE
Description: as §1, §2, §3, §4, §5, §6, §7

S. aureus = assay: Broth microdilution MIC (Example 5); format: cell-based, Staphylococcus aureus; conditions: Staphylococcus aureus
Description: as §1, §2, §3, §4, §5, §6, §7

[4] = S. pyogenes MMX 3820, ERYR CLIR

## CCC[C@@H]1C[C@@H](C(=O)N[C@@H]([C@H]2O[C@H](SC)[C@H](O)[C@@H](O)[C@H]2O)[C@H](C)Cl)N(C)C1 [Clindamycin]
B. fragilis
  MIC: 1 µg/mL (≈ 2.35 µM)
E. faecium; E. faecium MMX 485, VRE vanA
  MIC: >32 µg/mL
C. difficile; ATCC700057, C. difficile MMX 4381 (ATCC 700057), QC, CCI
  MIC: 4 µg/mL (≈ 9.41 µM)
C. difficile; C. difficile MMX 8272, ribotype 255, CCI
  MIC: 4 µg/mL (≈ 9.41 µM)
C. difficile; C. difficile MMX 8279, ribotype 005, CCR
  MIC: > 64 µg/mL
C. difficile; C. difficile MMX 8281, ribotype 010, CCR
  MIC: > 64 µg/mL
C. difficile; NCTC13307, C. difficile MMX 5681 (NCTC 13307), ribotype 012, CCR
  MIC: > 64 µg/mL
C. difficile; NCTC13336, C. difficile MMX 5680 (NCTC 13336), ribotype 027, CCI METR
  MIC: 4 µg/mL (≈ 9.41 µM)

## OC(Cn1cncn1)(Cn1cncn1)c1ccc(F)cc1F [Fluconazole]
C. parapsilosis; 24 hr
  CLSI QC range of MIC: 0.5 to 4 µg/mL
C. parapsilosis; 48 hr
  CLSI QC range of MIC: 1 to 4 µg/mL

## Penicillin
S. pneumoniae [1]; S. pneumoniae MMX 880, LevR SXTR CCR EryR PenR
  MIC: 2 µg/mL
S. pneumoniae [1]; S. pneumoniae MMX 937, MemR SXTR CCR EryR PenR
  MIC: 4 µg/mL
S. pneumoniae [1]; S. pneumoniae MMX 3959, CCR EryR
  MIC: 0.12 µg/mL
S. pneumoniae [1]; S. pneumoniae MMX 5440, MemR SXTR CCR EryR PenR
  MIC: 4 µg/mL
S. pneumoniae [1]; S. pneumoniae MMX 5445, MemR SXTR CCR EryR PenR
  MIC: 4 µg/mL
S. pneumoniae [1]; S. pneumoniae MMX 6837 (ATCC 49619), QC
  MIC: 0.25 µg/mL
S. pneumoniae [1]; S. pneumoniae MMX 8133, MemR SXTR CCR EryR PenR
  MIC: 4 µg/mL
S. pyogenes; S. pyogenes MMX 3068, EryR
  MIC: ≤0.008 µg/mL
S. pyogenes; [4]
  MIC: ≤0.008 µg/mL
S. pyogenes; S. pyogenes MMX 3919, ERYR
  MIC: ≤0.008 µg/mL
S. pyogenes; S. pyogenes MMX 3929, ERYR CCR
  MIC: ≤0.008 µg/mL
S. pyogenes; S. pyogenes MMX 5091, ERYR CCR
  MIC: ≤0.008 µg/mL
S. agalactiae; S. agalactiae MMX 3741, ERYR CCR
  MIC: 0.03 µg/mL
S. agalactiae; S. agalactiae MMX 3743, ERYR CCR
  MIC: 0.06 µg/mL
S. agalactiae; S. agalactiae MMX 4077, ERYR CCR
  MIC: 0.06 µg/mL
S. agalactiae; S. agalactiae MMX 4079, ERYR CCR PenR MEMR
  MIC: 2 µg/mL
S. agalactiae; S. agalactiae MMX 4086, ERYR CCR
  MIC: 0.06 µg/mL
S. pneumoniae [2]
  CLSI QC range of MIC: (0.25-1) μg/mL

## CC[C@H]1OC(=O)[C@H](C)[C@@H](O[C@H]2C[C@@](C)(OC)[C@@H](O)[C@H](C)O2)[C@H](C)[C@@H](O[C@@H]2O[C@H](C)C[C@H](N(C)C)[C@H]2O)[C@](C)(O)C[C@@H](C)C(=O)[C@H](C)[C@@H](O)[C@]1(C)O [Erythromycin]
E. faecium; E. faecium MMX 485, VRE vanA
  MIC: >64 µg/mL
S. pneumoniae [2]
  CLSI QC range of MIC: (0.03-0.12) μg/mL

## CN[C@H](CC(C)C)C(=O)N[C@H]1C(=O)N[C@@H](CC(N)=O)C(=O)N[C@H]2C(=O)N[C@H]3C(=O)N[C@H](C(=O)N[C@H](C(=O)O)c4cc(O)cc(O)c4-c4cc3ccc4O)[C@H](O)c3ccc(c(Cl)c3)Oc3cc2cc(c3O[C@@H]2O[C@H](CO)[C@@H](O)[C@H](O)[C@H]2O[C@H]2C[C@](C)(N)[C@H](O)[C@H](C)O2)Oc2ccc(cc2Cl)[C@H]1O [Vancomycin]
[3]
  MIC: 2 µg/mL
S. pneumoniae [1]; Streptococcus pneumoniae, ATCC49619, S. pneumoniae MMX 6837 (ATCC 49619), QC
  MIC: 0.25 µg/mL (≈ 0.173 µM)
S. pneumoniae [1]; Streptococcus pneumoniae, S. pneumoniae MMX 880, LevR SXTR CCR EryR PenR
  MIC: 0.5 µg/mL (≈ 0.345 µM)
S. pneumoniae [1]; Streptococcus pneumoniae, S. pneumoniae MMX 937, MemR SXTR CCR EryR PenR
  MIC: 0.5 µg/mL (≈ 0.345 µM)
S. pneumoniae [1]; Streptococcus pneumoniae, S. pneumoniae MMX 3959, CCR EryR
  MIC: 0.5 µg/mL (≈ 0.345 µM)
S. pneumoniae [1]; Streptococcus pneumoniae, S. pneumoniae MMX 5440, MemR SXTR CCR EryR PenR
  MIC: 0.25 µg/mL (≈ 0.173 µM)
S. pneumoniae [1]; Streptococcus pneumoniae, S. pneumoniae MMX 5445, MemR SXTR CCR EryR PenR
  MIC: 0.25 µg/mL (≈ 0.173 µM)
S. pneumoniae [1]; Streptococcus pneumoniae, S. pneumoniae MMX 8133, MemR SXTR CCR EryR PenR
  MIC: 0.25 µg/mL (≈ 0.173 µM)
E. faecium; E. faecium MMX 485, VRE vanA
  MIC: >64 µg/mL
E. faecium; Enterococcus faecium, VRE
  MIC: > 64 µg/mL
S. pyogenes; [4]
  MIC: 0.5 µg/mL (≈ 0.345 µM)
S. pyogenes; S. pyogenes MMX 3919, ERYR
  MIC: 0.5 µg/mL (≈ 0.345 µM)
S. pyogenes; S. pyogenes MMX 3929, ERYR CCR
  MIC: 0.5 µg/mL (≈ 0.345 µM)
S. pyogenes; S. pyogenes MMX 5091, ERYR CCR
  MIC: 0.5 µg/mL (≈ 0.345 µM)
S. pyogenes; Streptococcus pyogenes
  MIC: 0.5 µg/mL (≈ 0.345 µM)
S. agalactiae; Streptococcus agalactiae, S. agalactiae MMX 3741, ERYR CCR
  MIC: 0.5 µg/mL (≈ 0.345 µM)
S. agalactiae; Streptococcus agalactiae, S. agalactiae MMX 3743, ERYR CCR
  MIC: 0.5 µg/mL (≈ 0.345 µM)
S. agalactiae; Streptococcus agalactiae, S. agalactiae MMX 4077, ERYR CCR
  MIC: 0.5 µg/mL (≈ 0.345 µM)
S. agalactiae; Streptococcus agalactiae, S. agalactiae MMX 4079, ERYR CCR PenR MEMR
  MIC: 2 µg/mL (≈ 1.38 µM)
S. agalactiae; Streptococcus agalactiae, S. agalactiae MMX 4086, ERYR CCR
  MIC: 1 µg/mL (≈ 0.69 µM)
S. pneumoniae [2]
  CLSI QC range of MIC: (0.12-0.5) μg/mL
E. faecalis; E. faecalis MMX 8961
  MIC: >64 µg/mL
E. faecalis; E. faecalis MMX 8962
  MIC: >64 µg/mL
E. faecalis; Enterococcus faecalis
  MIC: > 64 µg/mL
S. aureus; ATCC 29213 / MSSA, S. aureus MMX 101 (ATCC 29213), QC, MSSA
  MIC: 1 µg/mL (≈ 0.69 µM)
S. aureus; MRSA, S. aureus MMX 5373
  MIC: 2 µg/mL (≈ 1.38 µM)
S. aureus; MRSA, S. aureus MMX 6311
  MIC: 0.25 µg/mL (≈ 0.173 µM)
S. aureus; MRSA, S. aureus MMX 9203
  MIC: 2 µg/mL (≈ 1.38 µM)
S. aureus; MRSA, S. aureus MMX 9204
  MIC: 1 µg/mL (≈ 0.69 µM)
S. aureus; MRSA, S. aureus MMX 9205
  MIC: 2 µg/mL (≈ 1.38 µM)
